Test results taken from patent US9403806B1, “Cognition enhancing compounds and compositions, methods of making, and methods of treating” (NeuroSolis, Inc., priority 2010, dated 2016).
Read-outs that look alike come from different tables or passages of the source.

How the values were obtained:
[1] = molecular target: T1, human muscarinic M1 receptors (Homo sapiens, UniProt P11229); type: cell-based; conditions: for huM1/A9L Smax: percentage of maximal stimulation by carbachol; for huM1/A9L Potency relative to carbachol: relative to the potency of carbachol at its EC50
T1 construct: host or cells: A9L cells
T1 sequence (P11229 1-460): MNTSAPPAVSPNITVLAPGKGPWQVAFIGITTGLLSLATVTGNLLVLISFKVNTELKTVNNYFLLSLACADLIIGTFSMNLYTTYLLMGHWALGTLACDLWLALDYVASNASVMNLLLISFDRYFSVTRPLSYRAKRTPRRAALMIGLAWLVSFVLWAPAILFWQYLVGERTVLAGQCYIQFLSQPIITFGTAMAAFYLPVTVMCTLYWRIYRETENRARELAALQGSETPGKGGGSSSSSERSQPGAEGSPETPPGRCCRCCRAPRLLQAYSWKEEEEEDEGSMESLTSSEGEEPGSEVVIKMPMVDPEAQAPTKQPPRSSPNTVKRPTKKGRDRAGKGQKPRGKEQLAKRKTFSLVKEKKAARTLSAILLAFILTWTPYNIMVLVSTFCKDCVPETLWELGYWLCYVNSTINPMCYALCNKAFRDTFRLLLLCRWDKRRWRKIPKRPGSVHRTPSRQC
Protocol: (§1) Muscarinic M1 and M3 agonist activity was evaluated by measuring the stimulation of inositol phosphate (IP) production in the presence of lithium chloride from A9L cells transfected with expression plasmids containing human muscarinic M1 and M3 receptors, respectively. The cell lines were a gift from Professor William Messer, and the methods were as described in Tejada et al. (J. Med. Chem. 2006; 49: 7518-31) except that the assay was scaled down to run in 384-well plates and the concentration of inositol-1-phosphate in the lysates was determined using the non-isotopic IP-One Terbium TR-FRET assay kit (Cisbio Bioassays, cat. #62IPAPEJ) according to the manufacturer's instructions.
(§2) Cells were grown to 90% confluence in 384-well high-base, small-volume plates (Greiner Bio-One), compounds were added at suitable concentrations in growth medium containing 10 mM LiCl, buffered with an extra 10 mM HEPES (pH=7.4), and incubated for 60 minutes at 37° C. Cells were lysed and assayed for IP following the manufacturer's instructions.
(§3) The value for a full agonist is 100%, while partial agonists give values below 100%.

[2] = molecular target: T2, human muscarinic M3 receptors (Homo sapiens, UniProt P20309); type: cell-based; conditions: for huM3/A9L Smax: percentage of maximal stimulation by carbachol; for huM3/A9L Potency relative to carbachol: relative to the potency of carbachol at its EC50
T2 construct: host or cells: A9L cells
Protocol: as §1, §2, §3

[3] = tested on: muscarinic M1 receptors in the hippocampus; experiment: In vivo inositol phosphate increase in hippocampus, Example 44; parameters: species or system Long Evans Hooded rats; conditions: rat, 3 mg/kg sc
Protocol: (§4) In lithium chloride-treated laboratory rodents, engagement of muscarinic M1 receptors in the hippocampus may usefully be evaluated in vivo by measuring the increase in the tissue of inositol phosphate (Bymaster F P et al Brain Res 795 (1998) 179-190). This may also be extended to measure engagement of muscaric M3 receptors in the salivary glands.
(§5) Experimental compounds were administered subcutaneously at 3 mg/kg using standard techniques to Long Evans Hooded rats weighing 225 to 350 g, and which had been pretreated with a subcutaneous injection of lithium chloride at a suitable dose between 3 and 5 mmole/kg. At suitable times the animals were briefly anesthetized using 5% isoflurane and euthanized by decapitation. The brains and submaxillary salivary glands were rapidly dissected out, and the hippocampuses were dissected from the brains. The dissected tissues were homogenized in a suitable volume of ice-cold phosphate-buffered saline containing 10 mM lithium chloride (pH=7.4) using a tissue homogenizer, and used immediately or frozen in aliquots at −80° C. for future use. The concentration of inositol-1-phosphate was determined in the homogenates using the […] IP-One Terbium TR-FRET assay kit (Cisbio Bioassays, cat. #62IPAPEJ) according to the manufacturer's instructions.

[4] = tested on: muscarinic M3 receptors in the salivary glands; experiment: In vivo inositol phosphate increase in salivary glands, Example 44; parameters: species or system Long Evans Hooded rats; conditions: rat, 3 mg/kg sc
Protocol: as §4, §5

[5] = tested on: pooled male human liver microsomes; experiment: Metabolism in human liver microsomes, Example 45; type: in vitro ADME
Protocol: Aliquots were removed every 2 hours, and 1% formic acid was added to halt the reaction. Samples were centrifuged, filtered through 0.2 micron spinfilter, and the amount of each compound in the supernatants was quantitated using LC/MS/MS as follows. The ultra-filtrates were subjected to reverse-phase liquid chromatography using a 150×2.1 mm Agilent C8-reverse phase column on a Shimadzu Prominence LC, eluting the compound with a gradient of 2%-50% acetonitrile+0.1% formic acid over 5 minutes. The concentration of the compound in the column effluent was measured using an Applied Biosystems API-3200 triple quadrupole mass spectrometer equipped with a Turbo V source (electrospray sample injection) system. The counts of the characteristic parent ions of the protonated compound and product ions were converted to concentration by comparison with a standard calibration curve. The parent/daughter ion pairs that were monitored for each compound were: 166.0/82.0 (105), 166.0/82.0 (106b), 166.0/82.0 (106a), 169.0/83.0 (136), 168.2/83.0 (121), 168.1/83.0 (122a), 168.1/83.0 (122b), 170.2/83.0 (134), 168.2/84.1 (135), 168.1/84.1 (137) and 169.2/82.1 (138).

in vitro = in vitro ADME; conditions: pH 7.4, 24 hours, room temperature; for Papp at 24 h, 400 µM: PAMPA, pH 7.4, 400 μM, read-out: PAMPA Permeability Coefficient (×10^6)
Protocol: PAMPA is a useful in vitro model for predicting the passive diffusion of drugs across the blood-brain barrier (Li, D et al Eur jour of Med Chem 38 (2003) 223-232).
Compounds were diluted in a 100 mM phosphate buffer (pH 7.4) to a concentration of 400 μM and the stock solutions were placed into a 96-well filter plate (Millipore, #MAIPN4510) pre-wetted with 20 mg/mL porcine brain polar lipid extract in 100% dodecane (Avanti, #131022) and placed into a 96-well acceptor plate (Millipore, #MSSACCEPTOR) whose wells were filled with the same phosphate buffer as in the filter plate. This assembly was incubated at room temperature for 24 hours. The experiment was halted by separating the filter plate from the acceptor plate. Aliquots were removed from the filter plate wells, acceptor plate wells, and stock solutions, and 1% trifluoroacetic acid was added to each. All solutions were measured by LC/UV, and passive diffusion rates were calculated using the peak area values (Avdeef, Alex. 2003. Page 147 in Absorption and Drug Development. Hoboken, N.J.: John Wiley & Sons).

[6] = Blood and brain concentrations (rats), tail vein injection; type: in vivo, Long-Evans Hooded rats; conditions: rat; for Kp at 1 h: brain and plasma, intravenous, Table 114, read-out: Brain/Plasma Ratio
Protocol: Long-Evans Hooded rats (Charles River: male, 230-300 g) were dosed with solutions of test compounds in PBS by tail vein injection. The dose for all compounds was 3 mg/kg. At one hour, the animals were anesthetized with isoflurane, and then euthanized by decapitation. Trunk blood was collected into a 1.5 mL microcentrifuge tube containing 15 U Heparin, and the plasma recovered after centrifugation. Brains were dissected, weighed, immediately chilled to 4° C., and homogenized using a PowerGen 125 homogenizer in five volumes of ice-cold 2% formic acid. Proteins were precipitated from plasma and brain homogenate with nine and five volumes respectively of ice-cold 2% formic acid and clarified by centrifugation. The supernatant was ultra-filtered by centrifugation through a 3K MWCO spin column (Pall Life Sciences), following the manufacturer's instructions. The concentration of compound in the ultra-filtrate was subjected to reverse-phase liquid chromatography using a 150×2.1 mm Agent C8 reverse-phase column on a Shimadzu Prominence LC, eluting the compounds with a gradient of 2% to 50% of acetonitrile+0.1% formic acid for all compounds. The concentration of the compound in the column effluent was measured using an Applied Biosystems API-3200 triple quadrupole mass spectrometer equipped with an electrospray sample injection system. The counts of the characteristic parent and product ions of each test compound were converted to concentration units by comparison with a standard curve.

[7] = as above; type: in vivo, Long-Evans Hooded rats; conditions: rat, 3 mg/kg tail vein injection; for half-life: male, Long-Evans Hooded, plasma, iv, 3 mg/kg, read-out: Plasma Terminal Half-life (converted)
[8] = male, Long-Evans Hooded, 3 mg/kg
[9] = male, Long-Evans Hooded, in vivo, 3 mg/kg, 3 mg/kg tail vein injection, read-out: Brain Concentration at 1 hr
[10] = male, Long-Evans Hooded, in vivo, 3 mg/kg, 3 mg/kg tail vein injection, read-out: Plasma Concentration at 1 hr

T2 sequence (P20309 whole entry): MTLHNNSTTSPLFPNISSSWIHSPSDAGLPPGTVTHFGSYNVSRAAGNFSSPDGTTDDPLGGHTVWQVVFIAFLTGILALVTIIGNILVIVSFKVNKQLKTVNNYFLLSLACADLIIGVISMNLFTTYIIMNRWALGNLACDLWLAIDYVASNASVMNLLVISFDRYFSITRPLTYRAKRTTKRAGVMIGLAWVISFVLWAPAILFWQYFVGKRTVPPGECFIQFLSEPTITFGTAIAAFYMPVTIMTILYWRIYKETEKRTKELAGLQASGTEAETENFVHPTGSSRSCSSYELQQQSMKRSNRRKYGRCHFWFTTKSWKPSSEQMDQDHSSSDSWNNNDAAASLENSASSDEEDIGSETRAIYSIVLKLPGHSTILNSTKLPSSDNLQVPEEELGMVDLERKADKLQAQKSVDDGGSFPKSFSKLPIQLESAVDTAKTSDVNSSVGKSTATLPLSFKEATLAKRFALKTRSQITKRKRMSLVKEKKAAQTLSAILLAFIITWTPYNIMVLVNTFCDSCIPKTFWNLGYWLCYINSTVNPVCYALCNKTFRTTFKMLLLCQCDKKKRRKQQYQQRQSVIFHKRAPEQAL

| Structure (SMILES) | huM1/A9L Smax [1] [%] | huM1/A9L Potency relative to carbachol [1] | huM3/A9L Smax [2] [%] | huM3/A9L Potency relative to carbachol [2] | Increase in Inositol Phosphate in Hippocampus/Control ([3]; 5 mmole/kg LiCl) [%] | Increase in Inositol Phosphate in Salivary Gland/Control ([4]; 5 mmole/kg LiCl) [%] | Loss at 6 hrs (%) [5] [%] | Papp at 24 h, 400 µM (in vitro) [nm/s] | Kp at 1 h [6, 8] | concentration at 1 h [6, 9] [µM] | concentration at 1 h [6, 10] [µM] | half-life [7] [h] | other results |
| --- | --- | --- | --- | --- | --- | --- | --- | --- | --- | --- | --- | --- | --- |
| [2H]C1([2H])NC([2H])([2H])C2(c3nc(C)no3)CC12 (stereo not shown) [Compound 134, 5-(2,2,4,4-d4-3-Azabicyclo[3.1.0]hexan-1-yl)-3-methyl-1,2,4-oxadiazole] | 61 | 1.17 | 41 | 0.35 | 574 | 214 | 10 | 34.6 | 0.65 | 8.4 | 13.5 | 1.4 | – |
| [2H]C1([2H])NCC2(c3nc(C)no3)CC12 (racemic) [Compound 121, 5-(4,4-d2-3-Azabicyclo[3.1.0]hexan-1-yl)-3-methyl-1,2,4-oxadiazole] | 73 | – | 37 | – | 795 | 239 | 13 | 37.8 | 0.51 | 8.6 | 16.8 | 1.26 | – |
| [2H]C([2H])([2H])c1noc(C23CNC([2H])([2H])C2C3)n1 (stereo not shown) [Compound 135, 5-(2,2-d2-3-azabicyclo[3.1.0]hexan-1-yl)-3-methyl-1,2,4-oxadiazole] | 70 | 1.39 | 46 | 0.49 | – | – | 26 | – | – | – | – | – | Increase in Inositol Phosphate in Hippocampus/Control ([3]; 5 mmole/kg LiCl, 3 mg/kg): 614%; Increase in Inositol Phosphate in Salivary Gland/Control ([4]; 5 mmole/kg LiCl, 3 mg/kg): 194%; PAMPA Permeability Coefficient (×10^6) (in vitro; 400 μM): 5.40 ×10^6; Brain/plasma ratio ([6]; Table 114, 3 mg/kg): 0.61; Plasma Concentration at 1 hr ([6]; 3 mg/kg tail vein injection): 13.8 µM; concentration at 1 h ([6]; 3 mg/kg tail vein injection, read-out: Brain Concentration at 1 hr): 7.7 µM; Plasma Terminal Half-life [7]: 1.0 h |
| Cc1noc([C@@]23CNC[C@@H]2C3)n1 [Compound 106a, 5-((1R,5R)-3-Azabicyclo[3.1.0]hexan-1-yl)-3-methyl-1,2,4-oxadiazole] | 80 | 1.72 | 45 | 0.46 | 376 | 191 | 50 | 42.5 | 0.39 | 3.5 | 5.6 | 0.7 | – |
| Cc1noc(C23CNCC2C3)n1 (racemic) [Compound 105, 5-(3-Azabicyclo[3.1.0]hexan-1-yl)-3-methyl-1,2,4-oxadiazole] | 58 | 0.78 | 33 | 0.17 | 563 | 219 | 27 | 44.9 | 0.38 | 4.4 | 15 | 1.1 | – |
| [2H]C1([2H])NC[C@@]2(c3nc(C)no3)C[C@@H]12 [Compound 122a, 5-((1R,5R)-4,4-d2-3-azabicyclo[3.1.0]hexan-1-yl)-3-methyl-1,2,4-oxadiazole] | 77 | 1.09 | 44 | 0.38 | – | – | 20 | 39.3 | 0.59 | 5 | 12.2 | 0.97 | Increase in Inositol Phosphate in Hippocampus/Control ([3]; 3 mmole/kg LiCl): 487%; Increase in Inositol Phosphate in Salivary Gland/Control ([4]; 3 mmole/kg LiCl): 182% |
| Cc1noc([C@]23CNC[C@H]2C3)n1 [Compound 106b, 5-((1S,5S)-3-Azabicyclo[3.1.0]hexan-1-yl)-3-methyl-1,2,4-oxadiazole] | 40 | 0.51 | 42 | 0.27 | 141 | 104 | 29 | 43.7 | 0.6 | 5.5 | 9.5 | 1.1 | – |
